Legend:
Format in all cases: cell-based
Set-up in all cases: expressed in transfected cells; host or cells: HEK293 cells transfected with VIPR2 in pCDNA3.1 (as described)
[1] = molecular target: T1, VIPR2 (Homo sapiens, UniProt P41587); test: Inhibition of VIP-induced cAMP elevation (% Activity cAMP); details: Batch 1
T1 sequence (P41587 24-438): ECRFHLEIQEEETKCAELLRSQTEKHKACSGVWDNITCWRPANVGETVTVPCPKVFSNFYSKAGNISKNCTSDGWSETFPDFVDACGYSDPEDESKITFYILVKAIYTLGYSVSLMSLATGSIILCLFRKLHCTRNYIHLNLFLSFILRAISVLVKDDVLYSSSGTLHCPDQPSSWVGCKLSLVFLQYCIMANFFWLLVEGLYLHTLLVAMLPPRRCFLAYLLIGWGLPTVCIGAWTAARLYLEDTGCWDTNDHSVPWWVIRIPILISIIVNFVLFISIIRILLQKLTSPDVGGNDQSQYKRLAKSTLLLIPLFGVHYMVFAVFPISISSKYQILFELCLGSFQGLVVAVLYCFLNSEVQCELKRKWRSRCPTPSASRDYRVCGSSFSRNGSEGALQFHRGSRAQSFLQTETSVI
How it was run: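 HEK293 cells stably transfected with human VIPR2 were incubated with inhibitor and VIP for 30 min, then cAMP was detected by HTRF after at least 1 h at room temperature. The 665/620 nm ratio ×10,000 was calculated.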

[2] = molecular target: T1, VIPR2; test: Inhibition of VIP-induced β-arrestin recruitment (% Activity Arrestin); details: Batch 1
How it was run: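 HEK293 cells stably expressing β-arrestin2–β-gal EA, transiently transfected with ProLink-tagged hVIPR2, plated overnight; inhibitor added for 2 h at 37 °C, 5% CO2. Receptor–arrestin complementation read by chemiluminescence after 5 min–1 h at room temperature; inhibition of VIP-induced recruitment reported as % activity.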

[3] = molecular target: T1, VIPR2; test: % Activity: inhibition of VIP-induced cAMP elevation and β-arrestin recruitment (Table 2)
How it was run: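 cAMP: HEK293 stably expressing hVIPR2, inhibitor plus VIP 30 min, cAMP by HTRF (665/620 nm ratio ×10,000). β-arrestin: HEK293 with β-arrestin2-β-gal-EA, transiently transfected with VIPR2-ProLink; inhibitor 2 h at 37° C, enzyme complementation read by luminescence.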

Compound	inhibition at 0.5 µM [1] [%]	inhibition at 1 µM [1] [%]	inhibition at 5 µM [1] [%]	inhibition at 0.5 µM [2] [%]	inhibition at 1 µM [2] [%]	inhibition at 5 µM [2] [%]	% Activity [3] [%]
COc1ccc(S(=O)(=O)NC[C@@H](O)C[C@@H](Cc2ccccc2)C(=O)N[C@H]2c3ccccc3C[C@H]2O)cc1 [E]	33.9	45.9	93.8	54.1	76.7	89.4	91.6
O=C(N[C@H]1c2ccccc2C[C@H]1O)[C@H](Cc1ccccc1)C[C@H](O)CNS(=O)(=O)c1ccc(C(F)(F)F)cc1 [F]	42	63.1	98.5	58.1	83	92.9	95.7
N#Cc1ccc(S(=O)(=O)NC[C@@H](O)C[C@@H](Cc2ccccc2)C(=O)N[C@H]2c3ccccc3C[C@H]2O)cc1 [C]	27.3	43.6	93.1	38.5	59.5	90.4	91.75
CC(C)c1ccc(S(=O)(=O)NC[C@@H](O)C[C@@H](Cc2ccccc2)C(=O)N[C@H]2c3ccccc3C[C@H]2O)cc1 [Compound A10]	36.5	44.2	98.2	31.5	63.1	87.7	92.95

Results, then the molecule that gave them:

inhibition at 0.5 µM [1] [%]	inhibition at 1 µM [1] [%]	inhibition at 5 µM [1] [%]	inhibition at 0.5 µM [2] [%]	inhibition at 1 µM [2] [%]	inhibition at 5 µM [2] [%]	% Activity [3] [%]	Compound
42.2	63.5	98.2	62.8	80.4	90	94.1	Cc1ccc(S(=O)(=O)NC[C@@H](O)C[C@@H](Cc2ccccc2)C(=O)N[C@H]2c3ccccc3C[C@H]2O)cc1 [I]
38.6	61.1	96	58.3	78	88.7	92.35	CC(=O)c1ccc(S(=O)(=O)NC[C@@H](O)C[C@@H](Cc2ccccc2)C(=O)N[C@H]2c3ccccc3C[C@H]2O)cc1 [K]

Reference: patent US20150239831A1, “INHIBITORS OF CENTRAL NERVOUS SYSTEM VASOACTIVE INHIBITORY PEPTIDE RECEPTOR 2” (The Trustees Of Columbia University In The City Of New York, priority 2012, published 2015)
